Results from US7754718B2 (priority 2004, dated 2010).
Counter-ions that a name gives are not always drawn. Like-named read-outs stand apart in the source and are kept apart here.

Assays:
HCV [1] = experiment: Anti-HCV activity in Huh-Luc/neo cell line, luciferase activity after 3-day treatment; format: cell-based, Hepatitis C virus; conditions: Huh-Luc/neo cells; for EC50: given as a bound only, read-out: Antiviral Activities (EC50, μM) HCV
Method: (§1) The antiviral assays for HBV, (Doong et al., 1991, Proc. Natl. Acad. Sci. U.S.A. 88:8495-8499) HSV-1, (Bastow et al., 1983, Antimicrob. Agents Chemother. 23: 914-917) HSV-2, (Bastow et al., 1983, Antimicrob. Agents Chemother. 23:914-917) EBV, (Yao et al., 1993, Antimicrob. Agents Chemother. 37:1420-1425), CMV (Andreoni et al., 2002, J. Med. Virol. 67:33-40) and HIV (Mellors et al., 1992, Mol. Pharmacol. 41: 446-451) were performed according to the previously reported procedures. Anti-HCV activities were tested in Huh-Luc/neo cell line. Cells were seeded into 48-well plates and grown until confluent. Different concentrations of drugs were added into media (DMEM, 10% dFBS) and incubated for 3 days. At the end of 3-day treatment, medium were removed and 50 μl of Passive lysis buffer (Promega) were added. Cell lysate was shaken at room temperature for 15 min. 30 μl/well of cell lysate was transferred to another 96-well plate, 100 μl/well of luciferase activity assay substrate was added into plate and read by a luminometer (Amersham) immediately.

HSV-2 = experiment: In vitro antiviral assay for HSV-2; format: cell-based, Herpes Simplex Virus 2
Method: as §1

HBV = experiment: In vitro antiviral assay for HBV (Table 1); format: cell-based, Hepatitis B virus; conditions: read-out: Antiviral Activities (EC50, μM) HBV
Method: as §1

HSV-1 = experiment: In vitro antiviral assay for HSV-1; format: cell-based, Herpes Simplex Virus 1
Method: as §1

[2] = Cell cytotoxicity assay on CEM cells; format: cell-based; conditions: human, read-out: Cytotoxity (ID50, μM) CEM
Method: (§2) Cytotoxicities of test compounds on MT-2 (Mellors et al., 1992 Mol. Pharmacol. 41:446-451) and CEM (Grove et al., 1995, Cancer Res. 55:3008-3011) cells were determined according to the previously reported procedures. Hepg2 cells were seeded at a density of 10^4 cells/ml/well in 24-well plates and cultured in MEME supplemented with 10% FBS at 37° C. and 5% CO2. Each test compound at different concentrations was added on the second day of the culture and the cells were incubated for another 3 days. At the end of the incubation period, the medium was removed and 0.5 ml of 0.5% methylene blue in 50% ethanol (v/v) was added to each well and set at room temperature for 30-60 minutes. The methylene blue was removed; the plates were washed with water and allowed to air dry. Once dry, 1% sarcosyl was added to dissolve the stained cell layer. The absorbance at 595 nm was measured with a microplate reader (Molecular Devices Corp. Sunnyvale, Calif.). The cytotoxicity to CEM cell was calculated as described previously (Grove et al., 1995, Cancer Res. 55 (14): 3008-3011).

HIV = experiment: In vitro antiviral assay for HIV; format: cell-based, human immunodeficiency virus; conditions: (T) after a value means toxic
Method: as §1

CMV = experiment: In vitro antiviral assay for CMV; format: cell-based, cytomegalovirus
Method: as §1

[3] = Cell cytotoxicity assay on MT-2 cells; format: cell-based; conditions: human, read-out: Cytotoxity (ID50, μM) MT-2
Method: as §2

EBV = experiment: In vitro antiviral assay for EBV; format: cell-based, Epstein-Barr Virus
Method: as §1

CEM cells = experiment: Cell cytotoxicity assay on CEM cells; format: cell-based; conditions: read-out: Cytotoxity (ID50, μM) CEM
Method: as §2

MT-2 cells = experiment: Cell cytotoxicity assay on MT-2 cells; format: cell-based; conditions: read-out: Cytotoxity (ID50, μM) MT-2
Method: as §2

HCV [4] = conditions: ribavirin alone; cited from earlier work
HCV [5] = conditions: patients chronically infected with HCV, IFN as sole treatment; cited from earlier work
[6] = Hepatitis C virus, 72 h, at 10 μM, 3 days, read-out: HCV percent of inhibition
[7] = Human alphaherpesvirus 2, read-out: Antiviral Activities (EC50, μM) HSV-2
[8] = Human alphaherpesvirus 1, read-out: Antiviral Activities (EC50, μM) HSV-1
[9] = Human immunodeficiency virus 1, read-out: Antiviral Activities (EC50, μM) HIV, in vitro
[10] = Human betaherpesvirus 5, read-out: Antiviral Activities (EC50, μM) CMV
[11] = human gammaherpesvirus 4, read-out: Antiviral Activities (EC50, μM) EBV
[12] = Hepatitis C virus, 72 h, 3 days
[13] = in vitro, read-out: Antiviral Activities (EC50, μM) HSV-2
[14] = in vitro, read-out: Antiviral Activities (EC50, μM) HSV-1
[15] = in vitro, read-out: Antiviral Activities (EC50, μM) HIV
[16] = in vitro, read-out: Antiviral Activities (EC50, μM) EBV

O=C([O-])c1cc2ccc3c(c2c(-c2ccc4c(c2)OCO4)c1CO)OCO3.[Na+] [Compound 3, 9-Benzo[1,3]dioxol-5-yl-8-hydroxymethyl-naphtho[1,2-d][1,3]dioxole-7-carboxylic acid monosodium salt]
inhibition at 10 µM (HCV [1]; [6]): 25%
EC50 (HSV-2; [7]): 25 µM
EC50 (HBV; Hepatitis B virus): 3.4 µM
EC50 (HSV-1; [8]): 9 µM
IC50 [2]: 30 µM
EC50 (HIV; [9]): > 10 µM
EC50 (CMV; [10]): 2.5 µM
melting point: 128 to 130 °C
IC50 [3]: 10 µM
EC50 (EBV; [11]): > 20 µM

O=C(NCCCOCc1ccccc1)c1cc2ccc3c(c2c(-c2ccc4c(c2)OCO4)c1COCc1ccccc1)OCO3 [Compound 8, 9-Benzo[1,3]dioxol-5-yl-8-benzyloxymethyl-naphtho[1,2-d][1,3]dioxole-7-carboxylic acid (3-benzyloxy-propyl)-amide]
EC50 (HCV [1]; [12]): > 10 µM
EC50 (HSV-2; [7]): > 25 µM
EC50 (HBV; Hepatitis B virus): > 10 µM
EC50 (HSV-1; [8]): > 25 µM
IC50 [2]: 10 µM
EC50 (HIV; [9]): > 100 µM
EC50 (CMV; [10]): 3.7 µM
IC50 [3]: > 100 µM
EC50 (EBV; [11]): > 15 µM

O=C1c2cc3ccc4c(c3c(-c3ccc5c(c3)OCO5)c2C(=O)N1CCCOCc1ccccc1)OCO4 [Compound 10, 10-Benzo[1,3]dioxol-5-yl-8-(3-benzyloxy-propyl)-1,3-dioxa-8-aza-dicycloplenta[a,g]naphthalene-7,9-dione]
HCV percent of inhibition (HCV [1]; at 10 μM, 3 days): 62%
EC50 (HSV-2; [13]): > 50 µM
EC50 (HBV; in vitro): > 10 µM
EC50 (HSV-1; [14]): > 50 µM
IC50 (CEM cells): > 100 µM
EC50 (HIV; [15]): > 100 µM
IC50 (MT-2 cells): > 100 µM
EC50 (EBV; [16]): > 5 µM

NC(=O)c1cc2ccc3c(c2c(-c2ccc4c(c2)OCO4)c1C(=O)O)OCO3 [Compound 12, 9-Benzo[1,3]dioxol-5-yl-7-carbamoyl-naphtho[1,2-d][1,3]dioxole-8-carboxylic acid]
inhibition at 3 µM (HCV [1]; Hepatitis C virus, 72 h, at 3 μM, 3 days, read-out: HCV percent of inhibition): 58%
EC50 (HSV-2; [7]): < 0.1 µM
times more potent than the reference drug acylclovir against HSV-2 (HSV-2; ratio of EC50 values): ~210 times
EC50 (HBV; Hepatitis B virus): 0.8 µM
EC50 (HSV-1; [8]): 0.15 µM
times more potent than the reference drug acylclovir against HSV-1 (HSV-1; ratio of EC50 values): about 140 times
IC50 [2]: 8.4 µM
EC50 (HIV; [9]): > 5 µM
EC50 (CMV; [10]): 0.45 µM
IC50 [3]: 5 µM
EC50 (EBV; [11]): 9 µM

O=C1NCc2cc3ccc4c(c3c(-c3ccc5c(c3)OCO5)c21)OCO4 [Compound 16, 10-Benzo[1,3]dioxol-5-yl-7,8-dihydro-13-dioxa-8-aza-dicyclopenta[a,g]naphthalen-9-one]
EC50 (HCV [1]; 3 days): > 10 µM
EC50 (HSV-2; [13]): > 50 µM
EC50 (HBV; in vitro): > 10 µM
EC50 (HSV-1; [14]): > 50 µM
IC50 (CEM cells): 90 µM
EC50 (HIV; [15]): > 100 µM
IC50 (MT-2 cells): > 100 µM
EC50 (EBV; [16]): > 20 µM

O=C1c2cc3ccc4c(c3c(-c3ccc5c(c3)OCO5)c2C(=O)N1O)OCO4 [Compound 24, 10-Benzo[1,3]dioxol-5-yl-8-hydroxy-1,3-dioxa-8-aza-dicyclopenta[a,g]naphthalene-7,9-dione]
EC50 (HCV [1]; [12]): > 10 µM
EC50 (HSV-2; [7]): > 30 µM
EC50 (HBV; Hepatitis B virus): > 5 µM
EC50 (HSV-1; [8]): > 30 µM
IC50 [2]: 17 µM
EC50 (HIV; [9]): > 16 µM
EC50 (CMV; [10]): 4.1 µM
melting point: 255 °C (dec.)
IC50 [3]: 16 µM
EC50 (EBV; [11]): > 5 µM

O=C1c2cc3ccc4c(c3c(-c3ccc5c(c3)OCO5)c2C(=O)N1CCCO)OCO4 [Compound 29, 10-Benzo[1,3]dioxol-5-yl-8-(3-hydroxy-propyl)-1,3-dioxa-8-aza-dicyclopenta[a,g]naphthalene-7,9-dione]
EC50 (HCV [1]; [12]): > 10 µM
EC50 (HSV-2; [7]): > 30 µM
EC50 (HBV; Hepatitis B virus): > 5 µM
EC50 (HSV-1; [8]): > 30 µM
IC50 [2]: 27 µM
EC50 (HIV; [9]): > 22 µM
EC50 (CMV; [10]): 8.1 µM
melting point: 150 to 152 °C
IC50 [3]: 22 µM
EC50 (EBV; [11]): > 5 µM

O=C1OCc2c1cc1c(Cl)cc3c(c1c2-c1ccc2c(c1)OCO2)OCO3 [Compound 37, 10-Benzo[1,3]dioxol-5-yl-5-chloro-9H-furo[3′,4′:6,7]naphtho[1,2-d][1,3]dioxol-7-one]
EC50 (HCV [1]; [12]): > 10 µM
EC50 (HSV-2; [7]): > 25 µM
EC50 (HBV; Hepatitis B virus): > 10 µM
EC50 (HSV-1; [8]): 23 µM
IC50 [2]: 27 µM
EC50 (HIV; [9]): > 50 µM
EC50 (CMV; [10]): 8.8 µM
melting point: 267 °C (dec.)
IC50 [3]: 50 µM
EC50 (EBV; [11]): > 20 µM

O=c1[nH][nH]c(=O)c2c(-c3ccc4c(c3)OCO4)c3c4c(cc(Br)c3cc12)OCO4 [Compound 42, 11-Benzo[1,3]dioxol-5-yl-5-bromo-8,9-dihydro-[1,3]dioxa-8,9-diaza-cyclopenta[a]anthracene-7,10-dione]
HCV percent of inhibition (HCV [1]; at 3 μM, 3 days): 45%
EC50 (HSV-2; [13]): > 20 µM
EC50 (HBV; in vitro): > 20 µM
EC50 (HSV-1; [14]): 16 µM
IC50 (CEM cells): 28 µM
IC50 (MT-2 cells): > 100 µM
EC50 (EBV; [16]): > 20 µM

O=C([O-])c1cc2c(Cl)cc3c(c2c(-c2ccc4c(c2)OCO4)c1CO)OCO3.[Na+] [Compound 44, 9-Benzo[1,3]dioxol-5-yl-5-chloro-8-hydroxymethyl-naphtho[1,2-d][1,3]dioxole-7-carboxylic acid monosodium salt]
EC50 (HCV [1]; [12]): > 10 µM
EC50 (HSV-2; [7]): > 50 µM
EC50 (HBV; Hepatitis B virus): > 10 µM
EC50 (HSV-1; [8]): > 50 µM
IC50 [2]: > 100 µM
EC50 (HIV; [9]): > 60 µM
EC50 (CMV; [10]): > 20 µM
melting point: 220 °C (dec.)
IC50 [3]: 60 µM
EC50 (EBV; [11]): > 20 µM

O=C(O)c1cc2c(Br)cc3c(c2c(-c2ccc4c(c2)OCO4)c1CO)OCO3 [Compound 45, 9-Benzo[1,3]dioxol-5-yl-5-bromo-8-hydroxymethyl-naphtho[1,2-d][1.3]dioxole-7-carboxylic acid monosodium salt]
EC50 (HSV-2; [13]): > 50 µM
EC50 (HBV; in vitro): > 10 µM
EC50 (HSV-1; [14]): > 50 µM
IC50 (CEM cells): 46.5 µM
EC50 (HIV; [15]): > 50 µM
EC50 (CMV; in vitro, read-out: Antiviral Activities (EC50, μM) CMV): > 20 µM
IC50 (MT-2 cells): 50 µM
EC50 (EBV; [16]): > 20 µM

O=C([O-])c1cc2c(I)cc3c(c2c(-c2ccc4c(c2)OCO4)c1CO)OCO3.[Na+] [Compound 46, 9-Benzo[1,3]dioxol-5-yl-8-hydroxymethyl-5-iodo-naphtho[1,2-d][1,3]dioxole-7-carboxylic acid monosodium salt]
inhibition at 10 µM (HCV [1]; [6]): 36%
EC50 (HSV-2; [7]): > 50 µM
EC50 (HBV; Hepatitis B virus): > 18 µM
EC50 (HSV-1; [8]): > 50 µM
IC50 [2]: > 100 µM
EC50 (HIV; [9]): > 80 µM
EC50 (CMV; [10]): > 20 µM
melting point: 212 °C (dec.)
IC50 [3]: 80 µM
EC50 (EBV; [11]): > 20 µM

NC(=O)c1ncn([C@@H]2O[C@H](CO)[C@@H](O)[C@H]2O)n1 [Ribavirin, 1-beta-D-ribofuranosyl-1-1,2,4-triazole-3-carboxamide]
patients in whom serum amino transferase levels are reduced to normal (HCV [4]): 40%

Interferon
HCV column: concentration at which the percent of inhibition was seen (HCV [1]; Interferon control): 10 u/ml
HCV percent of inhibition (HCV [1]; at 10 u/ml): (90) %
patients with a sustained response (HCV [5]): 8%-9%
